Measured values from patent publication US10570104B2, “Metabolically programmed metal chelators and uses thereof” (University of Florida Research Foundation, Incorporated, priority 2015, dated 2020).
Entries after “also recorded” stand apart in the source; their conditions may differ. Read-outs that look alike come from different tables or passages of the source.

Experiments:
[1] = log Papp, octanol/TRIS buffer pH 7.4, shake flask direct method; format: physicochemical; details: not told
Description: The redesign of 2 was predicated on the observation that both ligands 2 and 3 were orally active iron chelators in rodents and primates (Table 1), and that when the 4′-(OH) of 2 was methylated, providing (S)-4,5-dihydro-2-(2-hydroxy-4-methoxyphenyl)-4-methyl-4-thiazolecarboxylic acid^43 [(S)-4′-(CH3O)-DADFT, 4], there was a remarkable enhancement in both ICE and lipophilicity (log Papp). The log Papp data are expressed as the log of the fraction of the chelator seen in the octanol layer; measurements were done in TRIS buffer, pH 7.4, using a “shake flask” direct method.^49 The more negative the log Papp, the less chelator is in the octanol phase, the less lipophilic. Unfortunately, the increase in ICE of 4 came with a concomitant increase in toxicity.^50 Thus, the delicate balance between the increase in ICE and toxicity with enhanced lipophilicity needed to be understood and exploited.

[2] = Chelator-induced iron clearance (ICE) in iron-overloaded Cebus apella primates; format: in vivo, Cebus apella monkeys; details: 75 μmol/kg, monosodium salt
Protocol: Iron Loading of Cebus apella Monkeys. The monkeys (3.5-6.5 kg) were iron overloaded with intravenous iron dextran as specified in earlier publications to provide about 500 mg of iron per kg of body weight; the serum transferrin iron saturation rose to between 70 and 80%.^38,40 At least 20 half-lives, 60 days, elapsed before any of the animals were used in experiments evaluating iron-chelating agents.
Primate Fecal and Urine Samples. Fecal and urine samples were collected at 24 hours intervals and processed as described previously^38,40,74 Briefly, the collections began 4 days prior to the administration of the test drug and continued for an additional 5 days after the drug was given. Iron concentrations were determined by flame absorption spectroscopy as presented in other publications.^38′^40
Drug Preparation and Administration.
Calculation of Chelator Iron Clearing Efficiency (ICE).

[3] = Tissue distribution/metabolism of chelators in rats given sc (HPLC); format: in vivo, Sprague-Dawley rats
Protocol: Collection of Chelator Tissue Distribution Samples from Rodents. Male Sprague-Dawley rats (250-350 g) were given a single subcutaneously injection of the monosodium salts of 8 and 11 prepared as described above at a dose of […]. At times 0.5, 1, 2, 4 and 8 hours after dosing (n=3 rats per time point), the animals were euthanized by exposure to CO2 gas. Blood was obtained via cardiac puncture into vacutainers containing sodium citrate. The blood was centrifuged, and the plasma was separated for analysis. The liver, kidney, heart, and pancreas were removed from the animals and frozen.
Tissue Analytical Methods. Tissue samples of animals treated with 8 were prepared for HPLC analysis by homogenizing them in H2O at a ratio of 1:1 (w/v). Then, as a rinse, CH3OH at a ratio of 1:3 (w/v) was added, and the mixture was stored at −20° C. for 30 min. This homogenate was centrifuged. The supernatant was diluted with H2O, vortexed, and filtered with a 0.2 μm membrane. Analytical separation was performed on a Supelco Discovery RP Amide C16 HPLC system with UV detection at 310 nm as described previously.^44,75 Mobile phase and chromatographic conditions were as follows: solvent A, 5% CH3CN/95% buffer (25 mM KH2PO4+2.5 mM 1-octanesulfonic acid, pH 3.0); solvent B, 60% CH3CN/40% buffer.
Tissue samples of animals treated with 11 were prepared for HPLC analysis by homogenizing them in 0.5 N HClO4 at a ratio of 1:3 (w/v). Then, as a rinse, CH3OH at a ratio of 1:3 (w/v) was added, and the mixture was stored at −20° C. for 30 min. This homogenate was centrifuged. The supernatant was diluted with 95% buffer (25 mM KH2PO4, pH 3.0)/5% CH3CN, vortexed, and filtered with a 0.2 μm membrane. Analytical separation was performed on a Supelco Ascentis Express RP-Amide HPLC system with UV detection at 310 nm as described previously. Mobile phase and chromatographic conditions were as for 8.
Ligand concentrations were calculated from the peak area fitted to calibration curves by nonweighted least-squares linear regression with Shimadzu Class-VP 7.4 software.

[4] = for Rat ICE (%): 300 μmol/kg, monosodium salt
Protocol: Sample collection and handling are as previously described.^38,40
Drug Preparation and Administration. In the iron clearing experiments, the rats were given 8-14 orally at a dose of 300 μmol/kg. […] The chelators were administered as their monosodium salts (prepared by the addition of 1 equiv of NaOH to a suspension of the free acid in distilled water).
Calculation of Chelator Iron Clearing Efficiency (ICE). The term “ICE” is used as a measure of the amount of iron excretion induced by a chelator. The ICE, expressed as a percent, is calculated as (ligand-induced iron excretion/theoretical iron excretion)×100. […] The theoretical iron outputs of the chelators were generated on the basis of a 2:1 ligand:iron complex. The efficiencies in the rats and monkeys were calculated as set forth elsewhere.^37 Data are presented as the mean±the standard error of the mean; p-values were generated via a one-tailed Student's t-test in which the inequality of variances was assumed, and a p-value of <0.05 was considered significant.

[5] = po, 300 μmol/kg; historical; cited from earlier work
[6] = po, 150 μmol/kg; historical; cited from earlier work
[7] = cited from earlier work

SMILES: C[C@]1(C(=O)O)CSC(c2ccc(OCCOCCO)cc2O)=N1 [Compound 8, (S)-4,5-dihydro-2-[2-hydroxy-4-(5-hydroxy-3-oxapentyloxy)phenyl]-4-methyl-4-thiazolecarboxylic acid]
- Log Papp [1]: −0.53
- Cebus ICE (%) ([2]; po): 9.8±3.4%
- share of total drug concentration ([3]; sc 7, plasma, 0.5 hour): 5%
- share of drug (parent+metabolite) ([3]; sc 8, 300 μmol/kg, liver, 0.5 hour): 53%
- detection in liver ([3]; sc 8, 300 μmol/kg, liver, 8 hours): very little parent alcohol 8
- proportion of 8 converted to 9 ([3]; sc 8, 300 μmol/kg, plasma, 0.5 hour post drug): ~60%
- detection in plasma ([3]; sc 8, 300 μmol/kg, plasma, 8 hour): Neither the parent 8 nor the metabolite 9 was found at the 8 hour time point
- conversion of 8 to 9 ([3]; sc 8, 300 μmol/kg, tissues): very efficiently oxidized to carboxylic acid 9; also recorded: very efficiently converted to acid 9; also recorded: very quickly oxidized to 9
- Rat ICE (%) ([4]; po): 15.4 ± 5.6%

SMILES: C[C@]1(C(=O)O)CSC(c2ccc(OCC(=O)O)cc2O)=N1 [Compound 14, (S)-4,5-dihydro-2-[2-hydroxy-4-(carboxymethoxy)phenyl]-4-methyl-4-thiazolecarboxylic acid]
- Log Papp [1]: −1.98
- Cebus ICE (%) ([2]; po): 3.0±2.7%
- Cebus ICE (%) ([2]; sc): 15.9±4.3%
- detection in heart ([3]; sc 11, heart): not found in the 2-8 hour time points
- tissue concentration ([3]; sc 11, heart, 0.5 hour): 17 nmol/g wet weight
- tissue concentration ([3]; sc 11, heart, 1 hour): 23 nmol/g wet weight
- tissue concentration ([3]; sc 11, kidney, 0.5 hour): 156 nmol/g wet weight
- tissue concentration ([3]; sc 11, kidney, 1 hour): 201 nmol/g wet weight
- tissue concentration ([3]; sc 11, kidney, 2 hours): 161 nmol/g wet weight
- tissue concentration ([3]; sc 11, kidney, 8 hours): 5 nmol/g wet weight
- detection in liver ([3]; sc 11, liver): only trace amounts of 14 were detected
- share of total drug (parent+metabolites) ([3]; sc 11, liver, 0.5 hour): 18%
- share of total drug (parent+metabolites) ([3]; sc 11, liver, 1 hour): 39%
- detection in pancreas ([3]; sc 11, pancreas): Trace amounts of 14 were found at 0.5, 1, and 2 hours post dosing
- share of total (parent+metabolites) ([3]; sc 11, plasma, 0.5 hour): 16%
- share of total (parent+metabolites) ([3]; sc 11, plasma, 4 hours): 50%
- share of total (parent+metabolites) ([3]; sc 11, plasma, 8 hours): the remainder
- Rat ICE (%) ([4]; po): 2.6 ± 1.6%
- Rat ICE (%) ([4]; sc): 6.0 ± 1.9%

SMILES: C[C@]1(C(=O)O)CSC(c2ccc(OCCCCCC(=O)O)cc2O)=N1 [Compound 12, (S)-4,5-dihydro-2-[2-hydroxy-4-(5-carboxypentyloxy)phenyl]-4-methyl-4-thiazolecarboxylic acid]
- Log Papp [1]: −1.90
- Cebus ICE (%) ([2]; po): 10.6±4.0%
- Cebus ICE (%) ([2]; sc): 18.8±8.7%
- detection in heart ([3]; sc 11, heart): not found in the cardiac tissue at any of the time points
- detection in kidney ([3]; sc 11, kidney): found at 0.5 and 1 hour post drug
- detection in liver ([3]; sc 11, liver): not detected in the liver 2, 4, or 8 hours post dosing
- share of total drug (parent+metabolites) ([3]; sc 11, liver, 0.5 hour): 11%
- share of total drug (parent+metabolites) ([3]; sc 11, liver, 1 hour): 2%
- detection in pancreas ([3]; sc 11, pancreas): not found at any of the time points
- detection in plasma ([3]; sc 11, plasma): None of the first oxidation product of alcohol 11, the dicarboxylic acid 12, was detected in the plasma
- Rat ICE (%) ([4]; po): 8.8 ± 1.8%
- Rat ICE (%) ([4]; sc): 6.5 ± 1.5%

SMILES: C[C@]1(C(=O)O)CSC(c2ccc(OCCCC(=O)O)cc2O)=N1 [Compound 13, (S)-4,5-dihydro-2-[2-hydroxy-4-(3-carboxypropyloxy)phenyl]-4-methyl-4-thiazolecarboxylic acid]
- Log Papp [1]: −2.21
- Cebus ICE (%) ([2]; po): 5.4±1.5%
- Cebus ICE (%) ([2]; sc): 18.1±7.5%
- detection in heart ([3]; sc 11, heart): not found in the later time points
- tissue concentration ([3]; sc 11, heart, 0.5 hour): ~46 nmol/g wet weight
- tissue concentration ([3]; sc 11, heart, 1 hour): ~46 nmol/g wet weight
- detection in kidney ([3]; sc 11, kidney): not detectable 8 hours post dosing
- tissue concentration ([3]; sc 11, kidney, 0.5 hour): ~300 nmol/g wet weight
- tissue concentration ([3]; sc 11, kidney, 1 hour): ~300 nmol/g wet weight
- detection in liver ([3]; sc 11, liver): no 13 remained in the liver
- share of total drug (parent+metabolites) ([3]; sc 11, liver, 0.5 hour): 71%
- share of total drug (parent+metabolites) ([3]; sc 11, liver, 1 hour): 59%
- share of total drug (metabolites) ([3]; sc 11, liver, 2 hours): 66%
- share of total drug (metabolites) ([3]; sc 11, liver, 4 hours): 70%
- tissue concentration ([3]; sc 11, pancreas, 0.5 hour): 19 nmol/g wet weight
- tissue concentration ([3]; sc 11, pancreas, 1 hour): 23 nmol/g wet weight
- share of total (parent+metabolites) ([3]; sc 11, plasma, 0.5 hour): 62%
- share of total (parent+metabolites) ([3]; sc 11, plasma, 4 hours): 50%
- share of total (parent+metabolites) ([3]; sc 11, plasma, 8 hours): 65%
- Rat ICE (%) ([4]; po): 3.7 ± 1.7%
- Rat ICE (%) ([4]; sc): 4.3 ± 1.1%

SMILES: C[C@]1(C(=O)O)CSC(c2cccc(O)c2O)=N1 [Compound 3, (S)-2-(2,3-dihydroxyphenyl)-4,5-dihydro-4-methyl-4-thiazolecarboxylic acid]
- Log Papp [1]: −1.17
- Rodent ICE (%) [5]: 4.6 ± 0.9%
- Primate ICE (%) [6]: 23.1 ± 5.9%

SMILES: CCCCOc1ccc(C2=N[C@@H](C(=O)O)CS2)c(O)c1 [4′-butoxy analogue of 2, (S)-2-(4-butoxy-2-hydroxyphenyl)-4,5-dihydro-4-thiazolecarboxylic acid]
- time of deaths ([7]; same scenario as with 10): ≤ 24 h

SMILES: C[C@]1(C(=O)O)CSC(c2ccccc2O)=N1 [Compound 1a, (S)-4,5-dihydro-2-(2-hydroxyphenyl)-4-methyl-4-thiazolecarboxylic acid]
- gastrointestinal toxicity ([7]; in vivo): serious gastrointestinal (GI) problems
- nephrotoxicity ([7]; in vivo): not overtly nephrotoxic

SMILES: COCCCCCCOc1ccc(C2=N[C@@](C)(C(=O)O)CS2)c(O)c1 [Compound 10, (S)-4,5-dihydro-2-[2-hydroxy-4-(6-methoxyhexyloxy)phenyl]-4-methyl-4-thiazolecarboxylic acid]
- Log Papp [1]: 0.95
- time of death post drug ([4]; po 300 μmol/kg, bile duct-cannulated rats, one animal): about 22 hours
- drug-induced iron excretion, peak ([4]; po 300 μmol/kg, 6 hours post drug): 300 μg/kg of iron
- drug-induced iron excretion ([4]; po 300 μmol/kg, 24 hours post dosing): 80 μg/kg of iron
- Rat ICE (%) ([4]; po): 15.8 ± 3.7%
- overt toxicity ([4]; rats, po 300 μmol/kg, single dose): profoundly toxic; also recorded: very toxic; also recorded: Toxic in Rats
